Laboratory results reported in patent US10251944B2, “Cancer vaccines” (Pfizer Inc., priority 2016, dated 2019).
Where “and” joins values, the source holds several entries; their conditions need not be identical. Equal values may be shown once.

Test system: TUBO tumor cells
Assay: Subcutaneous TUBO tumor growth in BALB-neuT mice
Assay type: in vivo
Parameters: key to Subcutaneous tumor volumes: tumor volume in mm3
Conditions: for Subcutaneous tumor volumes: BALB-neuT mice, individual animals, with control vaccine and isotype control monoclonal antibody, listed as IDO1 inhibitor, in mm³
Experimental: BALB-neuT mice were implanted on study day 0 with TUBO tumor cells by subcutaneous injection. Mice were dosed with 200 mg/Kg of 3-(5-fluoro-1H-indol-3-yl)pyrrolidine-2,5-dione (IDO1 inhibitor) or vehicle twice daily from study day 7 using oral gavage. Comparator groups were sham dosed with vehicle from study day 7 onwards. Appropriated mice were immunized on study day 10 with 1e10 Viral Particles of an adenovirus vector engineered to express rat HER2 (rHER2) (rHER2 vaccine) or vector lacking the rHER2 transgene (control vaccine), by intramuscular injection. Subsequently, 250 ug of an anti-CTLA4 antibody (murine monoclonal antibody to CTLA-4, clone 9D9) or an IgG2 isotype control monoclonal antibody was injected subcutaneously in close proximity to lymph nodes draining the site of adenovirus vector injection. Every two weeks thereafter, mice were immunized with 100 ug of a DNA plasmid encoding rHER2 (rHER2 vaccine) or a DNA plasmid lacking the rHER2 transgene (control vaccine) by electroporation. Subsequent to the DNA plasmid administration, 250 ug of the anti-CTLA4 antibody was injected subcutaneously in close proximity to lymph nodes draining the site of DNA plasmid injection. To track tumor progression, subcutaneous tumor volumes were measured twice a week throughout the study. Animals with subcutaneous tumor volumes that reached 2000 mm3 or displaying irreversible signs of disease were euthanized.

Question: Which “tumor growth rates (subcutaneous tumor volumes), in words” value (BALB-neuT mice with TUBO tumors, IDO1 inhibitor 200 mg/Kg twice daily oral, anti-CTLA4 250 ug s.c., rHER2 adenovirus then DNA) does the source give for `O=C1CC(c2c[nH]c3ccc(F)cc23)C(=O)N1` (stereo not drawn) [001 inhibitor, 3-(5-fluoro-1H-indol-3-yl)pyrrolidine-2,5-dione] here?
Answer: No effect on tumor growth rates

Question: And the Subcutaneous tumor volumes (Study Day 18)?
Answer: 87.17 and 43.33 and 77.07 and 67.44 and 136.82 and 73.84 and 62.25 and 84.25 and 115.90 and 47.77 and 40.28 and 81.38 and 130.43

Question: And the Subcutaneous tumor volumes (Study Day 21)?
Answer: 91.03 and 64.93 and 113.76 and 113.10 and 163.91 and 75.81 and 78.22 and 89.04 and 182.85 and 58.23 and 54.88 and 135.90 and 127.97

Question: And the Subcutaneous tumor volumes (Study Day 24)?
Answer: 161.46 and 92.35 and 169.45 and 127.09 and 198.49 and 100.08 and 101.79 and 140.26 and 284.27 and 88.35 and 55.22 and 110.30 and 155.81

Question: And the Subcutaneous tumor volumes (Study Day 27)?
Answer: 163.11 and 110.42 and 171.37 and 129.44 and 240.05 and 125.82 and 123.19 and 186.49 and 361.01 and 112.48 and 80.13 and 147.33 and 241.15

Question: And the Subcutaneous tumor volumes (Study Day 32)?
Answer: 252.04 and 173.28 and 301.94 and 202.21 and 337.79 and 251.57 and 194.14 and 275.98 and 541.91 and 153.38 and 110.90 and 184.76 and 321.37

Question: And the Subcutaneous tumor volumes (Study Day 35)?
Answer: 324.53 and 260.28 and 306.58 and 377.96 and 401.70 and 262.56 and 246.60 and 364.82 and 598.92 and 209.97 and 141.15 and 244.33 and 521.30

Question: And the Subcutaneous tumor volumes (Study Day 39)?
Answer: 414.72 and 343.13 and 512.15 and 430.30 and 596.09 and 434.13 and 389.39 and 471.60 and 671.98 and 338.06 and 192.15 and 328.32 and 572.30

Question: What about the Subcutaneous tumor volumes (Study Day 42) of the same molecule?
Answer: 603.00 and 408.33 and 574.86 and 574.25 and 680.54 and 551.64 and 463.99 and 601.50 and 820.44
